Experimental data as given in ChEMBL document CHEMBL1156432, “Structure and regulation of the human Nek2 centrosomal kinase” (J Biol Chem, 2007).

B1: Serine/threonine-protein kinase Nek2 (Homo sapiens), P51955 T175A (protein)
chain: MPSRAEDYEVLYTIGTGSYGRCQKIRRKSDGKILVWKELDYGSMTEAEKQMLVSEVNLLRELKHPNIVRYYDRIIDRTNTTLYIVMEYCEGGDLASVITKGTKERQYLDEEFVLRVMTQLTLALKECHRRSDGGHTVLHRDLKPANVFLDGKQNVKLGDFGLARILNHDTSFAKAFVGTPYYMSPEQMNRMSYNEKSDIWSLGCLLYELCALMPPFTAFSQKELAGKIREGKFRRIPYRYSDELNEIITRMLNLKDYHRPSVEEILENPLIADLVADEQRRNLERRGRQLGEPEKSQDSSPVLSELKLKEIQLQERERALKAREERLEQKEQELCVRERLAEDKLARAENLLKNYSLLKERKFLSLASNPELLNLPSSVIKKKVHFSGESKENIMRSENSESQLTSKSKCKDLKKRLHAAQLRAQALSDIEKNYQLKSRQILGMR

Legend:
[1] = target: Platelet-derived growth factor receptor beta (Homo sapiens, UniProt P09619); assay: Inhibition of PDGFRbeta
[2] = target: Epidermal growth factor receptor (Homo sapiens, UniProt P00533); assay: Inhibition of EGFR
[3] = target: Serine/threonine-protein kinase Nek2 (Homo sapiens, UniProt P51955, T175A); assay: Inhibition of human recombinant Nek2 T175A mutant by coupled pyruvate kinase/lactate dehydrogenase assay
[4] = target: Vascular endothelial growth factor receptor 2 (Homo sapiens, UniProt P35968); assay: Inhibition of VEGFR2
[5] = substrate: CC[C@H](C)[C@H](NC(=O)[C@H](CO)NC(=O)[C@H](CO)NC(=O)[C@H](CCCNC(=N)N)NC(=O)[C@H](Cc1ccccc1)NC(=O)[C@@H](NC(=O)CN)[C@@H](C)O)C(=O)N[C@@H](CCCNC(=N)N)C(=O)N[C@@H](CCCNC(=N)N)C(=O)N[C@@H](CC(C)C)C(=O)N[C@@H](CO)C(=O)N[C@H](C(=O)N[C@@H](CCCNC(=N)N)C(=O)N[C@@H](CCCNC(=N)N)C(=O)N[C@@H](CCCNC(=N)N)C(=O)N[C@@H](Cc1ccc(O)cc1)C(=O)O)[C@@H](C)O; assay: Activity of human recombinant Nek2 T175A mutant assessed as substrate phosphorylation

Sequence of Epidermal growth factor receptor (P00533 whole entry): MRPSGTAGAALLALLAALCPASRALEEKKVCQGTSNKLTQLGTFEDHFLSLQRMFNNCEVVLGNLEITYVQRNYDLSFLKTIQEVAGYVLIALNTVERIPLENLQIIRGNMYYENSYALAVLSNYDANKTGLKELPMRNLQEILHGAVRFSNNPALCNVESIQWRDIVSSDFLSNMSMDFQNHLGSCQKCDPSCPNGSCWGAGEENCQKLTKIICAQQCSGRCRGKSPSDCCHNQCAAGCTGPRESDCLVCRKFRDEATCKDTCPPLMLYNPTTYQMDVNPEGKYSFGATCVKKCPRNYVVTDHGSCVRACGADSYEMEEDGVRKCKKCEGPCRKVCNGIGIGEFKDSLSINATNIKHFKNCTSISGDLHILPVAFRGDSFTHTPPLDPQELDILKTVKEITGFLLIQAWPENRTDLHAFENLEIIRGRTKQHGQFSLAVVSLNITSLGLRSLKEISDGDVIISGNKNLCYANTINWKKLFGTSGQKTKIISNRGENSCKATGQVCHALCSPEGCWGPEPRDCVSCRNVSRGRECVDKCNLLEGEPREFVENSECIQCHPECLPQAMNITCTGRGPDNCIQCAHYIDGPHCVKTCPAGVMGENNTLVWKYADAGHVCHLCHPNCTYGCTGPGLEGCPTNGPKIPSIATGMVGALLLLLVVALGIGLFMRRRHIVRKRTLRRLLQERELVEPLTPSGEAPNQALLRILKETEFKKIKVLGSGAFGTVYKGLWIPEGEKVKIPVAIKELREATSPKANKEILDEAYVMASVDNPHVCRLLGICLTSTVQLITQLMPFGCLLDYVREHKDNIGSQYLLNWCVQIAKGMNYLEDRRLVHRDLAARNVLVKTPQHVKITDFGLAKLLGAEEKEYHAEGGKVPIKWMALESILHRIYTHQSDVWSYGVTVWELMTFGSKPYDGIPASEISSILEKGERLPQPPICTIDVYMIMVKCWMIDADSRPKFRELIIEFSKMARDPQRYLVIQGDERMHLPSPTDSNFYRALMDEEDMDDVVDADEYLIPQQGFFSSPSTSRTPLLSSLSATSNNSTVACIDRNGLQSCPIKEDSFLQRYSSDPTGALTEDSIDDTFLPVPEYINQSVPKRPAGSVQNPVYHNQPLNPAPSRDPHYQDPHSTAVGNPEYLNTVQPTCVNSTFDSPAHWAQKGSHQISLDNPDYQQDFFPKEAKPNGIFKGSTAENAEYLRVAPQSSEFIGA
Sequence of Vascular endothelial growth factor receptor 2 (P35968 whole entry): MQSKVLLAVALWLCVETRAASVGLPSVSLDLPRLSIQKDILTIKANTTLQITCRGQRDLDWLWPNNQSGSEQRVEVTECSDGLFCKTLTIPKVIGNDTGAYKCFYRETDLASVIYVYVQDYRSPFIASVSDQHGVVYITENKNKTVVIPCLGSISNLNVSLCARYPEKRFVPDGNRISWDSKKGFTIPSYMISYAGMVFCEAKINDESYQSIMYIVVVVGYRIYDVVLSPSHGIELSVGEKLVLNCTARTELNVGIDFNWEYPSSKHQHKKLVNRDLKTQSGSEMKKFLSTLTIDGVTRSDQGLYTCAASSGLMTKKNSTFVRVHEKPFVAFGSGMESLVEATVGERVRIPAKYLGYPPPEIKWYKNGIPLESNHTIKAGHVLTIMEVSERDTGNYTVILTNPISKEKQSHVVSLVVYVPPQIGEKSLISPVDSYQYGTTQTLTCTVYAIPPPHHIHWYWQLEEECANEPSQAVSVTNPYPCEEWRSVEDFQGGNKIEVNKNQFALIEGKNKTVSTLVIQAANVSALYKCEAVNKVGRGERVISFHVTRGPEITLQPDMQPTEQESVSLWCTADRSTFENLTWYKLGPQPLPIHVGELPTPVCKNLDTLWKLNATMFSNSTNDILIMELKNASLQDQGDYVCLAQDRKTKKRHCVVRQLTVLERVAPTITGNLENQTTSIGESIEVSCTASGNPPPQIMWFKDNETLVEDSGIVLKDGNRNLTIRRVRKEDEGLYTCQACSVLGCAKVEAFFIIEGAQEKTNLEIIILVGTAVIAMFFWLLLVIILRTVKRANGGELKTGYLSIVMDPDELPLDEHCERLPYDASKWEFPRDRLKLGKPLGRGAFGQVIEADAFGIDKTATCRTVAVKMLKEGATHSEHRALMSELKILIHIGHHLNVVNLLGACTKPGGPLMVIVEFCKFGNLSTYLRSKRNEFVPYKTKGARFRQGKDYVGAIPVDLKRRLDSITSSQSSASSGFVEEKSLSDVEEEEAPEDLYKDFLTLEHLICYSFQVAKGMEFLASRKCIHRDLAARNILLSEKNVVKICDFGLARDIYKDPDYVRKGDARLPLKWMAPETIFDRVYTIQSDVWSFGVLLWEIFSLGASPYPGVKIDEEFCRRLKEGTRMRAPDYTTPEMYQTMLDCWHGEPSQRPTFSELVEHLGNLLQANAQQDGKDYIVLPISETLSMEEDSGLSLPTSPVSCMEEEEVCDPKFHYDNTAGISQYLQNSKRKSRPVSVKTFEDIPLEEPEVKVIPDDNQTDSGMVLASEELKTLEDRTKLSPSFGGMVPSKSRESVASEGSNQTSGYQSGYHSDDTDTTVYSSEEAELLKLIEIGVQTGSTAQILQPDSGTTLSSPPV
Sequence of Platelet-derived growth factor receptor beta (P09619 whole entry): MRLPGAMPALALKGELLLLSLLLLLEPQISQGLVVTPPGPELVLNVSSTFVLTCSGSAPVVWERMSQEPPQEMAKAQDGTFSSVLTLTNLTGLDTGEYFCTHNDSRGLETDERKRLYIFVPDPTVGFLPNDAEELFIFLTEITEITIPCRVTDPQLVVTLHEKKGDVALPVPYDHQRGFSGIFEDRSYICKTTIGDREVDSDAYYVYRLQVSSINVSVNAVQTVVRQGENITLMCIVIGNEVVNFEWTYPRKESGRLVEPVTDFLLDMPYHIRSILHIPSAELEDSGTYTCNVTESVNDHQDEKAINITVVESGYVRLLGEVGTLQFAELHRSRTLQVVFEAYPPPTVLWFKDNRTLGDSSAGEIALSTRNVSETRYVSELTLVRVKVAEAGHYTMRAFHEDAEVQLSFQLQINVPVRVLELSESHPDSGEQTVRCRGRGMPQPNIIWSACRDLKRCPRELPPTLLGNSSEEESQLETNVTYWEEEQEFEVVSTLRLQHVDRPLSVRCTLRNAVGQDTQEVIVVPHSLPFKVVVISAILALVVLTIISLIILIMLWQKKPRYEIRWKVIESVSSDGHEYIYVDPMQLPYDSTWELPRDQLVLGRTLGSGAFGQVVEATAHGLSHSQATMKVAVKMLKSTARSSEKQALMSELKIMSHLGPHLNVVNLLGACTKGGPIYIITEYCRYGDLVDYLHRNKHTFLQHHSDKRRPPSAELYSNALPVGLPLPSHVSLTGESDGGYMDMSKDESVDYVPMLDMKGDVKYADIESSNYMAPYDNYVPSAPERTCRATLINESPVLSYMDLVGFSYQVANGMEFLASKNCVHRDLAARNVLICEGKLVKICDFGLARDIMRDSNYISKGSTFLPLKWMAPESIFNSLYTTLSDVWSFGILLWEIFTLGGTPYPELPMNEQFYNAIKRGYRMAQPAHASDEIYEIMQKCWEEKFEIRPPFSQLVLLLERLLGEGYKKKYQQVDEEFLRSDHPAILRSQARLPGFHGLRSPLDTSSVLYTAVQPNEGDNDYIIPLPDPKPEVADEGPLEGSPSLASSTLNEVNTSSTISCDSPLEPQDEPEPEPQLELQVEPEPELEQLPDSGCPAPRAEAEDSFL

Row | Molecule | IC50 [1] [µM] | IC50 [2] [µM] | IC50 [3] [µM] | IC50 [4] [µM] | Km [5] [µM] | kcat [5] [s⁻¹]
1 | CCN(CC)CCNC(=O)c1c(C)[nH]c(/C=C2\C(=O)Nc3ccc(Cl)cc32)c1C [SU-11652] | 3 | 3 | 8 | 3 | – | –
2 | B1 | – | – | – | – | 90 | 0.283
